In ChEMBL document CHEMBL1201862, “PubChem BioAssay data set” (2004):
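Each compound was tested at five concentrations against cells in 96-well plates for 48 hours. At the GI50, growth is halved.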 Active and inactive are the calls of the source. Cut-off read from the data, not from the text of the source: active = GI50 up to about 1.1 µM and inactive = higher.

What was measured:
Assay in all cases: DTP human tumour cell line panel, 48 h
SK-MEL-2 = system: SK-MEL-2
KM12 = system: KM12
HOP-92 = system: HOP-92
EKVX = system: EKVX
SK-OV-3 = system: SK-OV-3
OVCAR-8 = system: OVCAR-8
UO-31 = system: UO-31
SW-620 = system: SW-620
OVCAR-3 = system: OVCAR-3
SF-295 = system: SF-295
UACC-257 = system: UACC-257
NCI-H23 = system: NCI-H23
HL-60 = system: HL-60
TK-10 = system: TK-10
SN12C = system: SN12C
A498 = system: A498
OVCAR-4 = system: OVCAR-4
COLO 205 = system: COLO 205
786-0 = system: 786-0
Malme-3M = system: Malme-3M

Measured: GI50

CCOC(=O)C(C(=O)OCC)=C1NC2(c3ccccc3Nc3ccc(C)cc32)C(C(=O)OC)S1 (stereo not given)
inactive: SK-MEL-2 14.7 µM | KM12 14.2 µM | HOP-92 4.92 µM | EKVX 8.36 µM | SK-OV-3 > 100 µM | OVCAR-8 29.4 µM | UO-31 16.5 µM | SW-620 48.6 µM | OVCAR-3 23.1 µM | SF-295 10.8 µM | UACC-257 26.4 µM | NCI-H23 25.5 µM | HL-60 20 µM | TK-10 46.9 µM | SN12C 4.11 µM | A498 10.1 µM | OVCAR-4 21.9 µM | COLO 205 11.6 µM | 786-0 22.9 µM | Malme-3M 22.5 µM

C(=N\Nc1nnc2c(n1)[nH]c1ccccc12)/c1cccnc1
inactive: SK-MEL-2 > 100 µM | KM12 3.69 µM | HOP-92 > 100 µM | EKVX > 100 µM | SK-OV-3 > 100 µM | OVCAR-8 > 100 µM | UO-31 > 100 µM | SW-620 > 100 µM | OVCAR-3 > 100 µM | SF-295 > 100 µM | UACC-257 > 100 µM | NCI-H23 > 100 µM | HL-60 > 100 µM | TK-10 > 100 µM | SN12C > 100 µM | A498 > 100 µM | OVCAR-4 > 100 µM | COLO 205 > 100 µM | 786-0 > 100 µM | Malme-3M 57.8 µM

Nc1nc[n+](Cc2ccccc2CCO)c2[nH]cnc12
inactive: SK-MEL-2 > 100 µM | KM12 > 100 µM | HOP-92 > 100 µM | EKVX > 100 µM | SK-OV-3 > 100 µM | OVCAR-8 > 100 µM | UO-31 89.3 µM | SW-620 > 100 µM | OVCAR-3 > 100 µM | SF-295 > 100 µM | UACC-257 > 100 µM | NCI-H23 > 100 µM | HL-60 > 100 µM | TK-10 > 100 µM | SN12C > 100 µM | A498 > 100 µM | OVCAR-4 > 100 µM | COLO 205 > 100 µM | 786-0 > 100 µM | Malme-3M > 100 µM
